Measurements: US20020015743A1, “USE OF THE RB1, GINSENOSIDE FOR STIMULATING ELASTIN SYNTHESIS” (priority 1997, published 2002)
Several values for one entry are separate records, joined by “and”; a condition that tells them apart may be missing. Equal values may be shown once.

What was measured:
[1] = test system: normal human fibroblasts (NHF-47 years); assay: Elastin secreted by normal human skin fibroblasts, ELISA on culture supernatants (NHF-47 years); type: cell-based; settings: for Activity in % (stimulation of elastin secretion vs control): 48 h; for ng Elastin/μg prot/48 h: n=6
Excerpt: The cells had been obtained by the method of explants as described by M. Dumas et al. in the article entitled “in vitro biosynthesis of type I and III collagens by human dermal fibroblasts from donors of increasing ages” in Mech. Ageing Dev. 73 (1994), pages 179-187. These normal human skin fibroblasts thus obtained are sown in the wells of a multi-well culture box, in an E 199 culture medium, in which 2 millimoles per liter of L-glutamine have been added. Further, for a certain number of tests, the culture medium contains sodium ascorbate at concentrations of 15 or 25 micromoles per liter. 24 hours after sowing, certain wells receive ginsenoside Rb1 or an extract of Panax 1 to 10 μg/ml via a solution in DMSO so that the final DMSO concentration be 0.1%. […] These control cultures only receive DMSO at a final concentration of 0.1% by weight. The culture is continued for 48 h. After 48 h of culture as indicated above, the elastin secreted is determined on the supernatants of the culture, by an ELISA method derived from that used for the determination of collagen, as described by M. Dumas et al in the publication cited above, except that a commercial human anti-elastin polyclonal antibody was used instead of the human anti-collagen I and III polyclonal antibodies. A standard range made from commercial soluble elastin enables converting into nanograms of elastin the values of optical density (OD) obtained from the culture supernatants. In parallel with the determination of the elastin, a determination of the cell proteins is carried out on the cultures of fibroblasts, after removal of the supernatant, in order to bring the amount of elastin determined to a fixed amount of cell proteins. The determination is carried out by using a BCA-1 kit (Bicinchoninic acid kit, marketed by Sigma, France) after dissolution of the cell plug with 0.1 N sodium hydroxide solution. The results are expressed in nanograms of elastin secreted per microgram of cellular proteins. The activity A of stimulation, expressed in percentage, is calculated according to the following formula: [formula] The results obtained on the treated cultures (n=6) and controls (n=6) are compared with the aid of the Student t test for non-paired series. Any value of p<0.05 will indicate that a significant difference exists between the secretion of elastin of the control NHFs and those treated with the products of the invention.

[2] = test system: normal human fibroblasts (NHF-50 years); assay: Elastin secreted by normal human skin fibroblasts, ELISA on culture supernatants (NHF-50 years); type: cell-based
Excerpt: The cells had been obtained by the method of explants as described by M. Dumas et al. in the article entitled “in vitro biosynthesis of type I and III collagens by human dermal fibroblasts from donors of increasing ages” in Mech. Ageing Dev. 73 (1994), pages 179-187. These normal human skin fibroblasts thus obtained are sown in the wells of a multi-well culture box, in an E 199 culture medium, in which 2 millimoles per liter of L-glutamine have been added. Further, for a certain number of tests, the culture medium contains sodium ascorbate at concentrations of 15 or 25 micromoles per liter. 24 hours after sowing, certain wells receive ginsenoside Rb1 or an extract of Panax 1 to 10 μg/ml via a solution in DMSO so that the final DMSO concentration be 0.1%. […] These control cultures only receive DMSO at a final concentration of 0.1% by weight. The culture is continued for 48 h. After 48 h of culture as indicated above, the elastin secreted is determined on the supernatants of the culture, by an ELISA method derived from that used for the determination of collagen, as described by M. Dumas et al in the publication cited above, except that a commercial human anti-elastin polyclonal antibody was used instead of the human anti-collagen I and III polyclonal antibodies. A standard range made from commercial soluble elastin enables converting into nanograms of elastin the values of optical density (OD) obtained from the culture supernatants. In parallel with the determination of the elastin, a determination of the cell proteins is carried out on the cultures of fibroblasts, after removal of the supernatant, in order to bring the amount of elastin determined to a fixed amount of cell proteins. The determination is carried out by using a BCA-1 kit (Bicinchoninic acid kit, marketed by Sigma, France) after dissolution of the cell plug with 0.1 N sodium hydroxide solution. The results are expressed in nanograms of elastin secreted per microgram of cellular proteins. The activity A of stimulation, expressed in percentage, is calculated according to the following formula: [formula] […]

[3] = test system: fibrocytes; settings: Tanaka H. et al., 1991; cited from earlier work
[4] = test system: keratinocytes; settings: Nack-in-Kim et al., J.Invest.Dermatol. 1993; cited from earlier work
[5] = product 10 μg/ml, no ascorbate, DMSO 0.1%

CC(C)=CCC[C@](C)(O[C@@H]1O[C@H](CO[C@@H]2O[C@H](CO)[C@@H](O)[C@H](O)[C@H]2O)[C@@H](O)[C@H](O)[C@H]1O)[C@H]1CC[C@]2(C)[C@@H]1[C@H](O)C[C@@H]1[C@@]3(C)CC[C@H](O[C@@H]4O[C@H](CO)[C@@H](O)[C@H](O)[C@H]4O[C@@H]4O[C@H](CO)[C@@H](O)[C@H](O)[C@H]4O)C(C)(C)[C@@H]3CC[C@]12C [G-Rb1, ginsenoside Rb1]
Activity in % (stimulation of elastin secretion vs control) ([1]; product 10 μg/ml + Asc. 15 μM): 16%
ng Elastin/μg prot/48 h ([1]; product 10 μg/ml + Asc. 15 μM): 39.3 + 2.8 ng Elastin/μg prot/48 h
Activity in % (stimulation of elastin secretion vs control) ([1]; product 10 μg/ml + Asc. 25 μM): 10%
ng Elastin/μg prot/48 h ([1]; product 10 μg/ml + Asc. 25 μM): 38.8 + 6.8 ng Elastin/μg prot/48 h
Activity in % (stimulation of elastin secretion vs control) [1, 5]: 31%
ng Elastin/μg prot/48 h [1, 5]: 25.8 ± 2.2 ng Elastin/μg prot/48 h
Activity in % (stimulation of elastin secretion vs control) ([2]; NHF-50 years, product 10 μg/ml + Asc. 25 μM, 48 h): 21% and 17%
ng Elastin/μg prot/48 h ([2]; NHF-50 years, product 10 μg/ml + Asc. 25 μM, 48 h, n=6): 26.3 + 3.7 ng Elastin/μg prot/48 h and 32 + 4.3 ng Elastin/μg prot/48 h and 28 + 2.2 ng Elastin/μg prot/48 h
synthesis of elastin by the fibroblasts (conclusion in words) ([2]; conclusion from Tables 1 to 3 (NHF-47 and NHF-50 years), stimulation augments with concentration): strongly stimulate the synthesis of elastin

CC(C)=CCC[C@](C)(O[C@@H]1O[C@H](CO[C@@H]2OC[C@H](O)[C@H](O)[C@H]2O)[C@@H](O)[C@H](O)[C@H]1O)[C@H]1CC[C@]2(C)[C@@H]1[C@H](O)C[C@@H]1[C@@]3(C)CC[C@H](O[C@@H]4O[C@H](CO)[C@@H](O)[C@H](O)[C@H]4O[C@@H]4O[C@H](CO)[C@@H](O)[C@H](O)[C@H]4O)C(C)(C)[C@@H]3CC[C@]12C [ginsenoside Rb2]
synthesis of glycosaminoglycans (GAG) by the fibrocytes [3]: effective to stimulate the synthesis of glycosaminoglycans (GAG)

ginsenoside
action on the proliferation of the keratinocytes [4]: inhibitory action
